Test results: patent US3941842A, “P,P'-Disubstituted α-trichloromethylbenzylanilines” (priority 1972, dated 1976)
Values joined by “and” are separate entries in the source; they are usually repeats but may differ in a detail not shown here. Equal entries are not always repeated.

What was measured:
[1] = tested on: Anopheles albimanus larvae; experiment: LC50 to Anopheles albimanus larvae; type: in vivo, Anopheles albimanus Weid
From the text: (§1) World Health Org. 363 (1971). […] Food Chem. 1145 (1970). […] Sci. Tech. 709 (1971). The results are detailed in Table II. ##SPC1##

Musca domestica Snaidm = experiment: Topical LD50 to adult female SNAIDM houseflies; conditions: for LD50: Musca domestica, read-out: Topical LD50, Musca domestica Snaidm, Alone; for LD50 / Topical LD50, Musca domestica Snaidm, with pb: topical; for Topical LD50, Musca domestica Snaidm, with pb: SNAIDM strain, synergized with piperonyl butoxide; for SR, Musca domestica Snaidm: synergistic ratio: LD50 alone/LD50 synergized with piperonyl butoxide
Protocol: (§2) The compounds of the present invention were tested for insecticidal activity by standard methods, and compared with the insecticidal activities of DDT and symmetrical analogs of DDT, such methoxychlor. Toxicological methods for the determination of the topical LD50 values to adult female SNAIDM and RSP houseflies, Musca domestica L. and to Phormia regina, and LC50 values to Culex pipiens quinquefasciatus Say, and Anopheles albimanus Weid mosquitoes were described by Metcalf el al., 44 Bull. World Health Org. 363 (1971). The methods for evaluation of metabolism by mouse liver homogenate and by female RSP housefly and salt-marsh caterpillar larvae Estigmene acrea Drury, were described by Kapoor et al., 18 J. Agr. Food Chem. 1145 (1970). The techniques for model eocsystem evluation were described by Metcalf et al., 5 J. Environ. Sci. Tech. 709 (1971).
(§3) Since piperonyl butoxide serves to block the action of MFO, the synergized LD50 values express the intrinsic toxicity of the compounds. With the detoxifying action of MFO enzymes blocked, the intrinsic toxicity of the compounds can thus be measured.

Culex fatigans larvae = experiment: LC50 to Culex fatigans larvae; type: in vivo, Culex pipiens quinquefasciatus Say
From the text: as §1

Phormia regina = experiment: whole plant or invertebrate; conditions: for LD50: Phormia regina, read-out: Topical LD50, Phormia regina, Alone; for LD50 / Topical LD50, Phormia regina, with pb: topical; for SR, Phormia regina: synergistic ratio: LD50 alone/LD50 synergized with piperonyl butoxide; for Topical LD50, Phormia regina, with pb: synergized with piperonyl butoxide
Protocol: as §2, with “363 (1971).” left out, “Food Chem. 1145 (1970).” left out, “Tech.” for “Tech. 709 (1971).”
as §3

[2] = tested on: Musca domestica (SNAIDM and RSP strains), Phormia regina, Culex fatigans and Anopheles albimanus; experiment: Insecticidal activity over the test insects (Table II, summarised in words); type: in vivo; conditions: for insecticidal effectiveness / toxicity (in words): overall, test insects of Table II; for SR values (in words): synergism by piperonyl butoxide
Protocol: as §2, §3

Musca domestica Rsp = experiment: Topical LD50 to adult female RSP houseflies; conditions: for LD50: Musca domestica, read-out: Topical LD50, Musca domestica Rsp, Alone; for LD50 / Topical LD50, Musca domestica Rsp, with pb: topical; for Topical LD50, Musca domestica Rsp, with pb: RSP strain, synergized with piperonyl butoxide; for SR, Musca domestica Rsp: synergistic ratio: LD50 alone/LD50 synergized with piperonyl butoxide
Protocol: as §2, §3

Row | SMILES | LC50 Anopheles albimanus larvae [1] | LD50 (Musca domestica Snaidm) | Topical LD50, Musca domestica Snaidm, with pb (Musca domestica Snaidm) | SR, Musca domestica Snaidm (Musca domestica Snaidm) | LC50 Culex fatigans larvae (Culex fatigans larvae) | LD50 (Phormia regina) | SR, Phormia regina (Phormia regina) | Topical LD50, Phormia regina, with pb (Phormia regina) | toxicity to adult insects (in words) ([2]; adult insects) | larvicidal effectiveness (in words) ([2]; mosquito larvae) | LD50 (Musca domestica Rsp) | Topical LD50, Musca domestica Rsp, with pb (Musca domestica Rsp) | SR, Musca domestica Rsp (Musca domestica Rsp) | insecticidal effectiveness / toxicity (in words) [2] | synergism in Phormia (in words) (Phormia regina; with piperonyl butoxide) | SR values (in words) [2]
1 | Clc1ccc(NC(c2ccc(Cl)cc2)C(Cl)(Cl)Cl)cc1 (stereo not shown) [Compound I] | 0.090 ppm | 115 mg/kg | 13.5 μg per g | 8.5 | 0.026 ppm | > 250 mg/kg | > 5.5 | 42.5 μg per g | low toxicity to adult insects | very effective larvicide | 220 mg/kg | 25 μg per g | 8.8 | – | – | –
2 | CCOc1ccc(NC(c2ccccc2)C(Cl)(Cl)Cl)cc1 (stereo not shown) [XIX] | 0.61 ppm | > 500 mg/kg | 31.0 μg per g | > 16 | > 1.0 ppm | > 250 mg/kg | – | > 250 μg per g | – | – | > 500 mg/kg | 120 μg per g | > 4 | Toxicity was greatly decreased | – | –
3 | COc1ccc(C(Nc2ccc(C)cc2C)C(Cl)(Cl)Cl)cc1 (stereo not shown) [XXIV] | 0.080 ppm | 95 mg/kg | 14.0 μg per g | 6.8 | 0.28 ppm | 97.5 mg/kg | – | 25.0 μg per g | – | – | 140 mg/kg | 29.0 μg per g | 4.8 | Toxicity was also substantially decreased | – | –
4 | CCOc1ccc(NC(c2ccccc2OCC)C(Cl)(Cl)Cl)cc1 (stereo not shown) [XX] | > 1.0 ppm | > 500 mg/kg | 500 μg per g | – | > 1.0 ppm | > 250 mg/kg | – | > 250 μg per g | – | – | > 500 mg/kg | > 500 μg per g | – | Toxicity was greatly decreased | – | –
5 | COc1ccc(C(Nc2ccc(C3CCCCC3)cc2)C(Cl)(Cl)Cl)cc1 (stereo not shown) [XXVII] | > 1.0 ppm | > 500 mg/kg | 48 μg per g | > 10 | 1.0 ppm | > 250 mg/kg | – | 112.5 μg per g | – | – | > 500 mg/kg | 165 μg per g | > 3 | Toxicity was also substantially decreased | – | –
6 | CCOc1ccc(C(Nc2ccccc2OCC)C(Cl)(Cl)Cl)cc1 (stereo not shown) [XXI] | > 1.0 ppm | > 500 mg/kg | 110 μg per g | > 5 | > 1.0 ppm | > 250 mg/kg | – | > 250 μg per g | – | – | > 500 mg/kg | 140 μg per g | > 3.5 | Toxicity was greatly decreased | – | –
7 | COc1ccc(C(Nc2ccc(C)c(C)c2)C(Cl)(Cl)Cl)cc1 (stereo not shown) [XXIII] | 0.18 ppm | 85 mg/kg | 6.5 μg per g | 13.0 | 0.30 ppm | 77.5 mg/kg | – | 15.5 μg per g | – | – | 100 mg/kg | 28.0 μg per g | 3.6 | Toxicity was also substantially decreased | – | –
8 | COc1ccc(NC(c2ccc(OC)cc2)C(Cl)(Cl)Cl)cc1 (stereo not shown) [Compound II] | 0.64 ppm | > 500 mg/kg | 5.5 μg per g | 100 and > 100 | > 1.0 ppm | 118 mg/kg | – | 35.0 μg per g | – | – | 500 mg/kg | 13.5 μg per g | 37 and > 37 | very low toxicity | substantially synergized in Phormia | –
9 | COc1ccc(NC(c2ccc(Cl)cc2)C(Cl)(Cl)Cl)cc1 (stereo not shown) [VI] | 0.37 ppm | 39 mg/kg | 6.5 μg per g | 6.0 | 0.44 ppm | 128 mg/kg | 1.6 | 80 μg per g | – | – | 49 mg/kg | 14.0 μg per g | 3.4 | – | – | higher SR values
10 | CN(C)c1ccc(C(Nc2ccc([N+](=O)[O-])cc2)C(Cl)(Cl)Cl)cc1 (stereo not shown) [XXVI] | > 1.0 ppm | > 500 mg/kg | 120 μg per g | > 4 | 0.38 ppm | > 250 mg/kg | – | > 250 μg per g | – | – | > 500 mg/kg | 500 μg per g | – | Toxicity was also substantially decreased | – | –
11 | CCCCOc1ccc(C(Nc2ccc(OC)cc2)C(Cl)(Cl)Cl)cc1 (stereo not shown) [XVIII] | 0.77 ppm | 370 mg/kg | 12.5 μg per g | 30 | 0.60 ppm | > 250 mg/kg | – | 67.5 μg per g | – | – | 230 mg/kg | 32.0 μg per g | 7.2 | Toxicity was also substantially decreased | – | –
12 | COc1ccc(NC(c2ccc(N(C)C)cc2)C(Cl)(Cl)Cl)cc1 (stereo not shown) [XXV] | 1.0 ppm | 310 mg/kg | 16.0 μg per g | 19.4 | 0.70 ppm | > 250 mg/kg | – | 85.0 μg per g | – | – | > 500 mg/kg | 13.5 μg per g | > 37 | Toxicity was also substantially decreased | – | –
13 | CCOc1ccc(C(Nc2ccccc2OCC)C(Cl)(Cl)Cl)c(OCC)c1 (stereo not shown) [XXII] | > 1.0 ppm | > 500 mg/kg | 500 μg per g | – | > 1.0 ppm | > 250 mg/kg | – | > 250 μg per g | – | – | > 500 mg/kg | 500 μg per g | – | Toxicity was also substantially decreased | – | –
14 | COc1ccc(NC(c2ccc(C)cc2)C(Cl)(Cl)Cl)cc1 (stereo not shown) [Compound X] | 0.48 ppm | 48 mg/kg | 8.5 μg per g | 5.6 | 0.54 ppm | 135 mg/kg | 9.6 | 14.0 μg per g | – | – | 65 mg/kg | 7.5 μg per g | 8.7 | – | – | higher SR values
